Patent publication US10301320B2, “Compositions and methods of modulating 15-PGDH activity” (CASE WESTERN RESERVE UNIVERSITY, priority 2012, dated 2019)
Entries after “also recorded” stand apart in the source; their conditions may differ. Like-named read-outs stand apart in the source and are kept apart here.

Experiments:
[1] = system: wild-type mouse bone marrow; assay: Hematopoietic colonies from bone marrow treated ex vivo; format: cell-based; details: 1 uM, ex vivo on ice for 2 hours; compared with SW033291
From the text: Treated marrow is again then plated into methylcellulose for counting of hematopoietic colonies.

[2] = molecular target: T1, recombinant 15-PGDH protein (Homo sapiens (Human), UniProt P15428); assay: Inhibition of enzymatic activity of recombinant 15-PGDH in vitro; format: biochemical; details: for inhibition at […]: read-out: Enzyme inhibition % ([…]), recombinant 15-PGDH, […] compound;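 as to all read-outs here: activity of recombinant human 15-PGDH assayed in vitro using PGE2 as the substrate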
[3] = system: 15-PGDH-luciferase fusion reporter in V9m, LS174T and V503 cell lines; assay: 15-PGDH-luciferase fusion gene reporter induction in three colon cancer cell lines (stated jointly); format: cell-based
[4] = system: 15-PGDH mRNA in colon cancer cell lines; assay: 15-PGDH mRNA levels by real-time PCR; format: cell-based; details: treated colon cancer cell lines, real-time PCR
From the text: In these studies parental cell lines (not containing the 15-PGDH-luciferase reporter) are employed.

[5] = molecular target: T1, recombinant 15-PGDH protein; assay: Melting temperature shift of recombinant 15-PGDH (SYPRO Orange); format: binding
A549 cells [6] = assay: PGE2 levels in medium of IL1-beta stimulated A549 cells; format: cell-based; details: for Effect on PGE2 levels in medium, in words: IL1-beta stimulated A549 cells; for PGE2 levels achieved: IL-1β 16 h, compound 8 h, highest level of titration; for Reduction in levels of PGE2 in the medium, ranking: 15-PGDH activators
[7] = Metabolic stability with murine liver S9; format: in vitro ADME
Method: SW054384 (2 mM in DMSO) was incubated with Murine S9 (Lot KWB) fraction and Phase I (NADPH Regenerating System) cofactors for 0-240 minutes. Reactions were quenched with a 1 mL (1:1) of MeOH/(+)IS/0.2% Formic Acid, vortexed for 15 seconds, incubated at RT for 10 minutes and spun for 5 minutes at 2400 rpms. […] Supernatant (800 μL) was transferred to an HPLC vial (w/out insert) and analyzed by HPLC/MS. A: dH2O+0.1% FA B: MeOH+0.1% FA
SW125991 (2 mM in DMSO) was incubated with Murine S9 (Lot KWB) fraction and Phase I (NADPH Regenerating System) cofactors for 0-240 minutes. Reactions were quenched with 1 mL (1:1) of methanol containing 0.2% formic acid and 100 ng/ml IS (IS final conc.=50 ng/ml). Samples were vortexed for 15 seconds, incubated at RT for 10 minutes and spun for 5 minutes at 2400 rpm. […] Supernatant (800 μL) was transferred to an HPLC vial (w/out insert). Analyzed by Qtrap 3200 mass spectrometer.

A549 cells [8] = assay: Cellular toxicity on A549 cells (CellTiter-Glo, cell numbers); format: cell-based; details: for Toxicity, CellTiter-Glo: 24 hours, up to 10 uM in FIG. 38
Method: Time to inhibition refers to the time needed to inhibit the generation of NADH by 15-PGDH from the moment with drug is added into the reaction mix. Delta™ refers to the shift in melting temperature of recombinant 15-PGDH in the presence of drug (with cofactor NADH also present). Concentration of Full Cell Line Reporter Induction refers to the concentration of drug that needs to be added to reporter cell line to achieve maximal induction of the 15-PGDH-luciferase gene fusion reporter cassette, as measured by luciferase assays. Hepatocyte stability refers to the half-life of compound in the presence of hepatocytes in culture. Toxicity refers to the concentration of compound needed to decrease cell numbers in a cell culture assay.
FIGS. 38(A-C) show assays of cellular toxicity on A549 cells at 24 hours of 15-PGDH inhibitors as assayed by CellTiter-Glo measurement.
FIGS. 84(A-C) show at left (84A) activity in lowering PGE2 levels in media of A549 cells that are stimulated to produce PGE2 by treatment with IL1-beta.

[9] = system: V9m reporter cell line expressing a 15-PGDH luciferase fusion construct; assay: 15-PGDH-luciferase fusion gene reporter induction, V9m cell line; format: cell-based; details: […], % increased luciferase activity over basal level
From the text: These cell lines are Vaco-9m (V9m), LS174T, Vaco503 (V503). […] Value of 1.0 on the Y-axis is the basal level of reporter activity in cells treated with drug free DMSO vehicle.
This Example provides data on a group of structural analogues of SW033291. Data provided includes level of induction of a 15-PGDH-luciferase fusion gene reporter, recorded as % increased luciferase activity over basal level, in three colon cancer cell lines, V9m, V503, and LS174T, engineered to contain the reporter, and treated with either 2.5 uM or 7.5 uM compound (i.e., Values are recorded on a scale where 100 indicates of doubling of luciferase activity over baseline level).
FIGS. 27(A-C) show graphs that show the level of compound's activity in inducing the 15-PGDH-luciferase fusion reporter in three different test cell line backgrounds, V9m, LS174T, and V503. Each compound was tested at two concentrations, 2.5 uM, and 7.5 uM. Y-axis is luciferase activity.
Data provided include level of induction of a 15-PGDH-luciferase fusion gene reporter, recorded as % induction of luciferase activity over basal level, in three colon cancer cell lines, V9m, V503, and LS174T, engineered to contain the reporter, and treated with either 2.5 uM or 7.5 uM compound. […] Additionally, for selected compounds is recorded the decrease in PGE2 levels in the media of compound treated A549 cells that have been stimulated with IL-1 beta. Additionally recorded for selected compounds is the effect on A549 cell viability as measured by a CellTiter-Glo assay, and the effect of compounds on A549 cell colony formation.

[10] = read-out: Enzyme inhibition % (2.5 μM)
[11] = read-out: Enzyme inhibition % (7.5 μM)

T1 sequence (P15428 whole entry, the tested form may be a part): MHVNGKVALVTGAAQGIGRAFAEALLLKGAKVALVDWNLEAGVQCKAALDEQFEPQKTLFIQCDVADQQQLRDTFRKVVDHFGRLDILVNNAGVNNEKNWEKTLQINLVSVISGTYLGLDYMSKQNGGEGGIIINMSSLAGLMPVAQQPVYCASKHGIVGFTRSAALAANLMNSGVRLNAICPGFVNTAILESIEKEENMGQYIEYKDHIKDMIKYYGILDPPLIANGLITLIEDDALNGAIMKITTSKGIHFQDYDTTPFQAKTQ

| inhibition at […] [2, 10] [%] | inhibition at […] [2, 11] [%] | SMILES | Induction of 15-PGDH-luciferase reporter, in words [3] | Effect on PGE2 levels in medium, in words (A549 cells [6]) | Inhibition of recombinant 15-PGDH, in words [2] | further results |
| --- | --- | --- | --- | --- | --- | --- |
| 20.2 | 58.2 | COc1ccc(OC)c(N(CC(=O)Nc2cccnc2)S(=O)(=O)c2ccccc2)c1 [SW054384] | increase luciferase activity | lower level of PGE2 produced; also recorded: show activity in lowering PGE2 | – | IC50 fold higher than that of SW033291 ([2]; FIG. 12): 10,000 fold; 15-PGDH mRNA levels [4]: do not in general alter 15-PGDH mRNA levels; Direct binding to recombinant 15-PGDH ([5]; melting temperature shift): cannot be demonstrated to bind 15-PGDH |
| 11.6 | 31.6 | COc1ccc(OC)c(N(CC(=O)N2CCOCC2)S(=O)(=O)c2ccccc2)c1 [SW125991] | retains activity in induction of the 15-PGDH-luciferase reporter assay; also recorded: active in inducing the 15-PGDH-luciferase reporter | show activity in lowering PGE2 | less inhibition of 15-PGDH at high compound concentration; also recorded: lesser inhibitory activity at high concentration | Metabolic stability, in words [7]: marked improvement in metabolic stability; Toxicity, CellTiter-Glo (A549 cells [8]): no toxicity |
| 26.5 | 58.9 | COc1ccc(OC)c(N(CC(=O)Nc2csnc2C)S(=O)(=O)c2ccccc2)c1 [SW203703] | active in inducing the 15-PGDH-luciferase reporter | show activity in lowering PGE2 | – | – |
| 1.7 | 24.9 | COc1ccc(OC)c(N(CC(=O)Nc2cccnc2)S(=O)(=O)c2ccc(F)cc2)c1 [SW203736] | active in inducing 15-PGDH-luciferase reporter activity; also recorded: active in inducing the 15-PGDH-luciferase reporter | show activity in lowering PGE2 | lesser inhibitory activity at high concentration | – |
| 23.8 | 42.5 | COc1ccc(OC)c(N(CC(=O)Nc2cccnc2)S(=O)(=O)c2ccc(Br)cc2)c1 [SW203737] | active in inducing 15-PGDH-luciferase reporter activity; also recorded: active in inducing the 15-PGDH-luciferase reporter | show activity in lowering PGE2 | – | – |
| -7.08 | -0.86 | COc1ccc(S(=O)(=O)N(CC(=O)N2CCOCC2)c2cc(OC)ccc2OC)cc1 [SW207997] | activity equal to, or in some assays greater than, SW054384; also recorded: active in inducing the 15-PGDH-luciferase reporter | – | much less inhibition of enzymatic activity of 15-PGDH; also recorded: lesser inhibitory activity at high concentration | Reduction in levels of PGE2 in the medium, ranking (A549 cells [6]; 100 nM drug): greatest reduction in levels of PGE2 |
| 8.09 | 14.4 | COc1ccc(S(=O)(=O)N(CC(=O)N2CCCCCC2)c2cc(OC)ccc2OC)cc1 [SW207998] | activity equal to, or in some assays greater than, SW054384; also recorded: active in inducing the 15-PGDH-luciferase reporter | – | much less inhibition of enzymatic activity of 15-PGDH; also recorded: lesser inhibitory activity at high concentration | Reduction in levels of PGE2 in the medium, ranking (A549 cells [6]; 100 nM drug): greatest reduction in levels of PGE2 |
| -0.86 | 3.34 | COc1ccc(S(=O)(=O)N(CC(=O)N2CCCCC2)c2cc(OC)ccc2OC)cc1 [SW207999] | active in inducing the 15-PGDH-luciferase reporter | – | lesser inhibitory activity at high concentration | – |

Second part, the compound before the results:

| SMILES | inhibition at […] [2, 10] [%] | inhibition at […] [2, 11] [%] | Induction of 15-PGDH-luciferase reporter, in words [3] | Effect on PGE2 levels in medium, in words (A549 cells [6]) | Inhibition of recombinant 15-PGDH, in words [2] | further results |
| --- | --- | --- | --- | --- | --- | --- |
| CCCCC[C@H](O)/C=C/[C@H]1[C@H](O)CC(=O)[C@@H]1C/C=C\CCCC(=O)O [PGE2, prostaglandin E2] | – | – | – | – | – | Increase in bone marrow derived colonies, in words [1]: lesser increase |
| O=C(c1ccc2nc(-c3ccccc3)c(-c3ccccc3)nc2c1)N1CCCCC1 [SW145753] | – | – | increase luciferase activity | clear inhibition of 15-PGDH activity | – | 15-PGDH mRNA levels [4]: do not in general alter 15-PGDH mRNA levels |
| CCCC[S+]([O-])c1sc2nc(-c3cccs3)ccc2c1N (stereo not shown) [SW206980, 2-(butylsulfinyl)-6-(thiophen-2-yl)thieno[2,3-b]pyridin-3-amine] | – | – | highly active compound in reporter induction; also recorded: activity comparable to SW033291 | – | – | V9M reporter activity ([…]) [9]: 92.71%; V9M reporter activity ([…]) ([9]; 100 = doubling): 99.37%; PGE2 levels achieved (A549 cells [6]): 2500 pg/mL |
| CCCC[S+]([O-])c1sc2nc(-c3nccs3)ccc2c1N (stereo not shown) [SW206992, 2-(butylsulfinyl)-6-(thiazol-2-yl)thieno[2,3-b]pyridin-3-amine] | – | – | – | – | – | Time to inhibition (10 nM) ([2]; time needed to inhibit generation of NADH after drug is added): ~2 min; V9M reporter activity ([…]) [9]: 121.75%; V9M reporter activity ([…]) ([9]; 100 = doubling): 86.44%; Concentration for Full Cell Line Reporter Induction ([3]; maximal induction of reporter, printed in uM): >1 µM; Toxicity, CellTiter-Glo (A549 cells [8]): No effect on CellTitre-Glo levels; Toxicity (A549 cells [8]; concentration needed to decrease cell numbers in a cell culture assay): >7.5 µM; Melting temperature ([5]; 15-PGDH 10 uM, compound 20 uM, NAD(+) 100 uM, control 49): 59 degrees; PGE2 levels achieved (A549 cells [6]): 2100 pg/mL |
| CCCC[S+]([O-])c1sc2nc(-c3nccs3)cc(-c3ccccc3)c2c1N (stereo not shown) [SW208066, 2-(butylsulfinyl)-4-phenyl-6-(thiazol-2-yl)thieno[2,3-b]pyridin-3-amine] | – | – | – | – | – | V9M reporter activity ([…]) [9]: 111.63%; V9M reporter activity ([…]) ([9]; 100 = doubling): 122.72%; PGE2 levels in the medium, ranking (A549 cells [6]; 100 nM drug, 15-PGDH inhibitors): highest levels of PGE2 |
| CCCCC(C)(C)[C@H](O)/C=C/[C@H]1[C@H](O)CC(=O)[C@@H]1C/C=C\CCCC(=O)O [dmPGE2, 16,16-dimethyl PGE2] | – | – | – | – | – | Increase in bone marrow derived colonies, in words [1]: slightly greater increase |
